How the values were obtained:
Assay in all cases: DSF thermal shift
Assay type in all cases: binding
Brd2(2)*(Met438-Leu) = molecular target: T1, Brd2(2)*(Met438-Leu) (Homo sapiens, UniProt P25440, M438L); conditions: mutant
T1 construct: Plasmids of the eight single BET bromodomain constructs Brd2(1), Brd2(2), Brd3(1), Brd3(2); His6 (N); made in house; host or cells: E. coli BL21(DE3)
Method: (§1) DSF assays were performed on a LightCycler®480 from Roche or a Mx3005P Real Time PCR machine from Stratagene. Prior to DSF assays, frozen proteins were buffer exchanged using Vivaspin®6 concentrators with a 10 kDa cutoff on a Centrifuge 5430 from Eppendorf at a speed of 6000×g to remove glycerol and to buffer the proteins in 20 mM HEPES pH 7.5 at 25° C. and 100 mM NaCl. SYPRO®Orange from Invitrogen Molecular Probes® was used as a reporter dye to monitor the denaturing process of the proteins. Samples were assayed on a 96-well plate with final protein concentrations of 2 μM for the LightCycler®480 and 6 μM for Mx3005P. Compounds were added at a final concentration of 10 μM for the LightCycler®480 and 30 μM for Mx3005P, while the tetra acetylated histone peptide was added to a final concentration of 100 μM and 300 μM respectively. […] The temperature was raised with a step of 0.6° C. per minute from 37° C. to 95° C. with the LightCycler®480 collecting 39 measurements per ° C., and 1° C. per minute from 25° C. to 95° C. with Mx3005P, collecting fluorescence readings at the end of each interval. Each sample was run in triplicates.
(§2) Collected data was analysed by IGOR Pro 6, a scientific software tool from Wave Metrics, Inc. Analysis was done following the recommendations of Niesen et al.. Fluorescence intensity was plotted as a function of temperature, generating a sigmoidal curve described by a two-state transition from folded to unfolded protein. Curves were fitted by the following sigmoidal equation: […]
(§3) A1 and A2 are the values of minimum and maximum intensities, respectively, x0 is the inflection point and dx is the rate. Fitted curves were differentiated in IGOR Pro 6 and the maximum of the first derivative was identified using the same program. These values correspond to the inflection points of the transition curves and thus to the melting temperatures of the proteins (Tm).

Brd2(1)*(Met165-Leu) = molecular target: T2, Brd2(1)*(Met165-Leu) (Homo sapiens, UniProt P25440, M165L); conditions: mutant
T2 construct: Plasmids of the eight single BET bromodomain constructs Brd2(1), Brd2(2), Brd3(1), Brd3(2); His6 (N); made in house; host or cells: E. coli BL21(DE3)
T2 sequence (P25440 74-180 M165L limits assumed): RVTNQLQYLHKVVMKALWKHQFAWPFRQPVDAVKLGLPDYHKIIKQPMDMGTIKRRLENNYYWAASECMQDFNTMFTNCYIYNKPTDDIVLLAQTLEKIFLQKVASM
Method: as §1, §2, §3

Brd2(2)*(Met438-Ala) = molecular target: T3, Brd2(2)*(Met438-Ala) (Homo sapiens, UniProt P25440, M438A); conditions: mutant
T3 construct: Plasmids of the eight single BET bromodomain constructs Brd2(1), Brd2(2), Brd3(1), Brd3(2); His6 (N); made in house; host or cells: E. coli BL21(DE3)
T3 sequence (P25440 344-453 M438A limits assumed): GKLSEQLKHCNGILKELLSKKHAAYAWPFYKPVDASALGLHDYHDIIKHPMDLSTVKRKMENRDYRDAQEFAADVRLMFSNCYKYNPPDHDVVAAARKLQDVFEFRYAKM
Method: as §1, §2, §3

Brd2(2) = molecular target: T4, Brd2(2) (Homo sapiens, UniProt P25440); conditions: wild type
T4 construct: Plasmids of the eight single BET bromodomain constructs Brd2(1), Brd2(2), Brd3(1), Brd3(2); His6 (N); made in house; host or cells: E. coli BL21(DE3)
T4 sequence (P25440 344-453 limits assumed): as the sequence (P25440 344-453 M438A limits assumed) above, with A95M counted along it
Method: as §1, with “Prior to DSF assays, frozen proteins were buffer exchanged using Vivaspin®6 concentrators with a 10 kDa cutoff on a Centrifuge 5430 from Eppendorf at a speed of 6000×g to remove glycerol and to buffer the proteins in 20 mM HEPES pH 7.5 at 25° C. and 100 mM NaCl.” left out
as §2, §3

Brd2(1) = molecular target: T5, Brd2(1) (Homo sapiens, UniProt P25440); conditions: wild type
T5 construct: Plasmids of the eight single BET bromodomain constructs Brd2(1), Brd2(2), Brd3(1), Brd3(2); His6 (N); made in house; host or cells: E. coli BL21(DE3)
T5 sequence (P25440 74-180 limits assumed): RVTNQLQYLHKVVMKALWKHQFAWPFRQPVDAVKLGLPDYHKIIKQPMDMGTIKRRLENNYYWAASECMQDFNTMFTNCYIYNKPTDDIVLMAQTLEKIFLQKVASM
Method: as §1, with “Prior to DSF assays, frozen proteins were buffer exchanged using Vivaspin®6 concentrators with a 10 kDa cutoff on a Centrifuge 5430 from Eppendorf at a speed of 6000×g to remove glycerol and to buffer the proteins in 20 mM HEPES pH 7.5 at 25° C. and 100 mM NaCl.” left out
as §2, §3

Brd2(1)*(Met165Ala) = Brd2(1)*(Met165Ala) (Homo sapiens, UniProt P25440, M165A); set-up: Plasmids of the eight single BET bromodomain constructs Brd2(1), Brd2(2), Brd3(1), Brd3(2); His6 (N); made in house; host or cells: E. coli BL21(DE3); conditions: mutant
Brd2(1)*(Met165Ala), sequence (P25440 74-180 M165A limits assumed): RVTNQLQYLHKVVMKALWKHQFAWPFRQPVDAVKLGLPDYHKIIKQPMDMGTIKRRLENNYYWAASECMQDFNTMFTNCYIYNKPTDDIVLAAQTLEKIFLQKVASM
Method: as §1, §2, §3

Brd2(1)*(Trp097Phe) = molecular target: T6, Brd2(1)*(Trp097Phe) (Homo sapiens, UniProt P25440, W97F); conditions: mutant
T6 construct: Plasmids of the eight single BET bromodomain constructs Brd2(1), Brd2(2), Brd3(1), Brd3(2); His6 (N); made in house; host or cells: E. coli BL21(DE3)
T6 sequence (P25440 74-180 W97F limits assumed): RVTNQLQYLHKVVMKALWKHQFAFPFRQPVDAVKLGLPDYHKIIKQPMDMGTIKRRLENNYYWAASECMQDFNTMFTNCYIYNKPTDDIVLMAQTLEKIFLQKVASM
Method: as §1, with “Prior to DSF assays, frozen proteins were buffer exchanged using Vivaspin®6 concentrators with a 10 kDa cutoff on a Centrifuge 5430 from Eppendorf at a speed of 6000×g to remove glycerol and to buffer the proteins in 20 mM HEPES pH 7.5 at 25° C. and 100 mM NaCl.” left out
as §2, §3

Brd2(1)*(Trp097His) = molecular target: T7, Brd2(1)*(Trp097His) (Homo sapiens, UniProt P25440, W97H); conditions: mutant
T7 construct: Plasmids of the eight single BET bromodomain constructs Brd2(1), Brd2(2), Brd3(1), Brd3(2); His6 (N); made in house; host or cells: E. coli BL21(DE3)
T7 sequence (P25440 74-180 W97H limits assumed): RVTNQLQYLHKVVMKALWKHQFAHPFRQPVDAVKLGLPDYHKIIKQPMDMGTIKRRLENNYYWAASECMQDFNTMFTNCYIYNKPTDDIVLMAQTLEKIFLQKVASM
Method: as §1, with “Prior to DSF assays, frozen proteins were buffer exchanged using Vivaspin®6 concentrators with a 10 kDa cutoff on a Centrifuge 5430 from Eppendorf at a speed of 6000×g to remove glycerol and to buffer the proteins in 20 mM HEPES pH 7.5 at 25° C. and 100 mM NaCl.” left out
as §2, §3

Brd2(2)*(Trp370Phe) = molecular target: T8, Brd2(2)*(Trp370Phe) (Homo sapiens, UniProt P25440, W370F); conditions: mutant
T8 construct: Plasmids of the eight single BET bromodomain constructs Brd2(1), Brd2(2), Brd3(1), Brd3(2); His6 (N); made in house; host or cells: E. coli BL21(DE3)
T8 sequence (P25440 344-453 W370F limits assumed): as the sequence (P25440 344-453 M438A limits assumed) above, with W27F, A95M counted along it
Method: as §1, with “Prior to DSF assays, frozen proteins were buffer exchanged using Vivaspin®6 concentrators with a 10 kDa cutoff on a Centrifuge 5430 from Eppendorf at a speed of 6000×g to remove glycerol and to buffer the proteins in 20 mM HEPES pH 7.5 at 25° C. and 100 mM NaCl.” left out
as §2, §3

Brd2(2)*(Trp370His) = molecular target: T9, Brd2(2)*(Trp370His) (Homo sapiens, UniProt P25440, W370H); conditions: mutant
T9 construct: Plasmids of the eight single BET bromodomain constructs Brd2(1), Brd2(2), Brd3(1), Brd3(2); His6 (N); made in house; host or cells: E. coli BL21(DE3)
T9 sequence (P25440 344-453 W370H limits assumed): as the sequence (P25440 344-453 M438A limits assumed) above, with W27H, A95M counted along it
Method: as §1, with “Prior to DSF assays, frozen proteins were buffer exchanged using Vivaspin®6 concentrators with a 10 kDa cutoff on a Centrifuge 5430 from Eppendorf at a speed of 6000×g to remove glycerol and to buffer the proteins in 20 mM HEPES pH 7.5 at 25° C. and 100 mM NaCl.” left out
as §2, §3

T1 sequence (P25440 344-453 M438L limits assumed): as the sequence (P25440 344-453 M438A limits assumed) above, with A95L counted along it

SMILES	ΔTm Brd2(2)*(Met165-Leu) (Brd2(2)*(Met438-Leu))	ΔTm Brd2(1)*(Met165-Leu) (Brd2(1)*(Met165-Leu))	ΔTm Brd2(2)*(Met165-Ala) (Brd2(2)*(Met438-Ala))	ΔTm Brd2(2) (Brd2(2))	ΔTm Brd2(1) (Brd2(1))	ΔTm Brd2(1)*(Met165-Ala) (Brd2(1)*(Met165Ala))	Thermal stabilisation brd2(1)W097F (Brd2(1)*(Trp097Phe))	ΔTm Brd2(1)*(Tryp097-Phe) (Brd2(1)*(Trp097Phe))	Thermal stabilisation brd2(1)W097H (Brd2(1)*(Trp097His))	ΔTm Brd2(1)*(Tryp097-His) (Brd2(1)*(Trp097His))	Thermal stabilisation brd2(2)W370F (Brd2(2)*(Trp370Phe))	ΔTm Brd2(2)*(Tryp370-Phe) (Brd2(2)*(Trp370Phe))	Thermal stabilisation brd2(2) (Brd2(2))	Thermal stabilisation brd2(1) (Brd2(1))	Thermal stabilisation brd2(2)W370H (Brd2(2)*(Trp370His))	ΔTm Brd2(2)*(Tryp370-His) (Brd2(2)*(Trp370His))
Cc1cc(C)cc(S(=O)(=O)Nc2ccc3c(c2)CN(C)C(=O)N3)c1 [Compound 49, 3,5-dimethyl-N-(3-methyl-2-oxo-1,2,3,4-tetrahydroquinazolin-6-yl)benzenesulfonamide]	4.9 ± 0.3 K	4.1 ± 0.6 K	2.5 ± 0.2 K	2.8 ± 0.2 K	2.6 ± 0.5 K	1.1 ± 0.5 K										
CN1Cc2cc(NS(=O)(=O)c3ccc(-c4ccccc4)cc3)ccc2NC1=O [Compound 48, N-(3-methyl-2-oxo-1,2,3,4-tetrahydroquinazolin-6-yl)-[1,1′-biphenyl]-4-sulfonamide]	0.0 ± 0.1 K	0.0 ± 0.1 K	0.0 ± 0.1 K	0.0 ± 0.2 K	0.5 ± 0.2 K	1.5 ± 0.4 K										
COC(=O)CC1N=C(c2ccc(Cl)cc2C)c2cc(OC)ccc2-n2c(C)nnc21 (racemic) [Compound 8, (+−)-methyl 2-(6-(4-chloro-2-methylphenyl)-8-methoxy-1-methyl-4H-benzo[f][1,2,4]triazolo[4,3-a][1,4]diazepin-4-yl)acetate]				6.6 ± 0.2 K	6.3 ± 0.1 K		1.4 ± 0.2 °C	1.4 ± 0.2 K	0.9 ± 0.3 °C	0.9 ± 0.3 K	2.8 ± 0.1 °C	2.8 ± 0.1 K	6.6 ± 0.2 °C	6.3 ± 0.1 °C	1.1 ± 0.2 °C	1.1 ± 0.2 K
COC(=O)CC1N=C(c2ccc(Cl)c(C)c2)c2cc(OC)ccc2-n2c(C)nnc21 (racemic) [Compound 9, (+−)-methyl 2-(6-(4-chloro-3-methylphenyl)-8-methoxy-1-methyl-4H-benzo[f][1,2,4]triazolo[4,3-a][1,4]diazepin-4-yl)acetate]				3.2 ± 0.1 K	1.5 ± 0.2 K		−0.1 ± 0.2 °C	−0.1 ± 0.2 K	0.2 ± 0.2 °C	0.2 ± 0.2 K	1.5 ± 0.0 °C	1.5 ± 0.0 K	3.2 ± 0.1 °C	1.5 ± 0.2 °C	1.0 ± 0.3 °C	1.0 ± 0.3 K
CN1Cc2cc(NS(=O)(=O)c3c(Cl)cccc3Cl)ccc2NC1=O [Compound 43, 2,6-dichloro-N-(3-methyl-2-oxo-1,2,3,4-tetrahydroquinazolin-6-yl)benzenesulfonamide]				0.6 ± 0.1 K	1.2 ± 0.2 K			0.2 ± 0.3 K		0.2 ± 0.2 K		1.8 ± 0.3 K				0.3 ± 0.1 K
CN1Cc2cc(NS(=O)(=O)c3ccccc3-c3ccccc3)ccc2NC1=O [Compound 44, N-(3-methyl-2-oxo-1,2,3,4-tetrahydroquinazolin-6-yl)-[1,1′-biphenyl]-2-sulfonamide]				2.1 ± 0.4 K	2.8 ± 0.4 K			1.8 ± 0.3 K		1.3 ± 0.2 K		2.2 ± 0.3 K				0.5 ± 0.3 K
Cc1cc(C)c(S(=O)(=O)Nc2ccc3c(c2)CN(C)C(=O)N3)c(C)c1 [Compound 42, 2,4,6-trimethyl-N-(3-methyl-2-oxo-1,2,3,4-tetrahydroquinazolin-6 yl)benzenesulfonamide]				2.7 ± 0.5 K	0.7 ± 0.3 K			0.7 ± 0.2 K		0.2 ± 0.4 K		1.8 ± 0.2 K				0.2 ± 0.2 K
COC(=O)CC1N=C(c2cc(Cl)ccc2Cl)c2cc(OC)ccc2-n2c(C)nnc21 (centres unmarked) [Compound 17]				2.5 ± 0.2 K	1.2 ± 0.2 K			0.0 ± 0.2 K		−0.4 ± 0.2 K		0.3 ± 0.0 K				−0.4 ± 0.2 K
Cc1cccc(Cl)c1S(=O)(=O)Nc1ccc2c(c1)CN(C)C(=O)N2 [Compound 45, 2-chloro-6-methyl-N-(3-methyl-2-oxo-1,2,3,4-tetrahydroquinazolin-6-yl)benzenesulfonamide]				5.3 ± 0.5 K	3.9 ± 0.2 K					0.0 ± 0.3 K		2.3 ± 0.1 K				0.8 ± 0.1 K
COC(=O)CC1N=C(c2cc(C)ccc2C)c2cc(OC)ccc2-n2c(C)nnc21 (racemic) [Compound 10, (+−)-methyl 2-(6-(2,5-dimethylphenyl)-8-methoxy-1-methyl-4H-benzo[f][1,2,4]triazolo[4,3-a][1,4]diazepin-4-yl)acetate]				3.5 ± 0.1 K	1.8 ± 0.2 K		0.1 ± 0.2 °C	0.1 ± 0.2 K	−0.4 ± 0.3 °C	−0.4 ± 0.3 K	0.6 ± 0.1 °C	0.6 ± 0.1 K	3.5 ± 0.1 °C	1.8 ± 0.2 °C	−0.1 ± 0.1 °C	−0.1 ± 0.1 K

Reference: patent publication US20170122958A1, “Enzymes Functional Probes” (University of Dundee, priority 2013, published 2017)
